In patent US5470833A, “Endothelin antagonistic peptide derivatives” (Banyu Pharmaceutical Co., Ltd., priority 1990, dated 1995):
Read-outs that look alike come from different tables or passages of the source. Numbered stars: 1 amine (or outer) side, 2 acyl side, 3 side chain; on linkers, the order of the positions; unused ones are H or OH. Square brackets hold non-standard residues; d marks the D form. Peptide text beside a SMILES is read from it. * marks the point of attachment. d(β3hF) = N[C@@H](CC(=O)O)Cc1ccccc1; β3hF = N[C@H](CC(=O)O)Cc1ccccc1; d(β3hA) = C[C@@H](N)CC(=O)O; 3Abz = Nc1cccc(C(=O)O)c1; Nva = CCC[C@H](N)C(=O)O; Boc = CC(C)(C)OC(=O)*; CO = O=C([*:1])[*:2]; NHBn = c1ccc(CN*)cc1; Piv = CC(C)(C)C(=O)*; NHPh = c1ccc(N*)cc1; Dha = C=C(N)C(=O)O; NHtBu = CC(C)(C)N*; βAla = NCCC(=O)O

Biological target: T1, endothelin receptor (membrane of smooth muscle tissue of porcine aorta) (Sus scrofa, UniProt Q29010)
T1 construct: from tissue; host or cells: porcine aorta smooth muscle, membrane fraction
T1 sequence (Q29010 21-427): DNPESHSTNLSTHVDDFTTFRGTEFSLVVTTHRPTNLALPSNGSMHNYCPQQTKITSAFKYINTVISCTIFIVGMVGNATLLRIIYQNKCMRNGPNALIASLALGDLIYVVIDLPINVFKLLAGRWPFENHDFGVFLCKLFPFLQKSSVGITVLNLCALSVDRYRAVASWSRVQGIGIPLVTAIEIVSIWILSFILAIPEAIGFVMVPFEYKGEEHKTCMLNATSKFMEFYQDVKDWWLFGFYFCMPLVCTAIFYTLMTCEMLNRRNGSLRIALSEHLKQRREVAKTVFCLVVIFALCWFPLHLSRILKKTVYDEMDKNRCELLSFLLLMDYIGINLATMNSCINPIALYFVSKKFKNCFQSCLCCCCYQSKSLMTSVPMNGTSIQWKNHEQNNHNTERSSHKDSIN
Assay: Endothelin binding inhibition test (125I-endothelin-1, porcine aorta smooth muscle membrane)
Conditions: read-out: 125I-endothelin-1 binding inhibition; for inhibition at 10 µM: 10 μM test compound (marked *)
Procedure: The smooth muscle tissue of porcine aorta was homogenized in a buffer solution of 10 mM MOPS, pH 7.4, at 4° C. by a polytron. To the homogenate, sucrose was added to a concentration of 20%, and the mixture was centrifuged at 1,000×g for 15 minutes, and the supernatant was further centrifuged at 10,000×g for 15 minutes. The supernatant thereof was further centrifuged at 90,000×g for 40 minutes. The membrane precipitate thereby obtained was suspended in a buffer solution of 5 mM HEPES/Tris, pH 7.4, at a concentration of 25 mg/ml.
Then, 16 μl of this membrane suspension was added to 340 μl of 50 mM Tris/HCl buffer, pH 7.4, containing 10 μM calcium chloride, 10 μM magnesium chloride, 0.1 mM PMSF, 1 μM pepstatin A, 2 μM leupeptin, 1 mM 1,10-phenanthroline and 0.1% bovine serum albumin. To this suspension, 4 μl of (A) endothelin-1 (for nonspecific binding; 0.2 μM as the final concentration), (B) buffer solution A (for total control binding), or (C) a test compound (1.1 μM or 10 μM as the final concentration),was added. Further, to each suspension, 40 μl of ^125 I-endothelin-1 (12000-18000 cpm) was added. These mixtures were incubated at 25° C. for 4 hours, then subjected to filtration on a glass filter GF/C and then washed with 5 mM HEPES/Tris, pH 7.4, containing 0.3% bovine serum albumin. Then, the radioactivity trapped by the glass filter was measured, and the ^125 I-endothelin-1 binding inhibition D (%) at 1.1 μM or 10 μM of the test compound was determined by the following equation. [formula] Each test was performed in triplicate.
The test compounds are indicated by Compound Nos.

Row | inhibition at 1.1 µM (1.1 μM test compound (no mark)) [%] | SMILES | further results
1 | 80 | CC(C)C[C@H](NC(=O)OC(C)(C)C)C(=O)N[C@H](Cc1c[nH]c2ccccc12)C(=O)N[C@H](Cc1c[nH]cn1)C(=O)O [Compound 4] (Boc-Leu-[dW]-[dH]-OH) | 
2 | 65 | CC(C)C[C@H](NC(=O)OC(C)(C)C)C(=O)N[C@H](Cc1c[nH]c2ccccc12)C(=O)N[C@H](CC(=O)O)C(N)=O [Compound 36] (Boc-Leu-[dW]-[dD]-NH2) | 
3 | 38 | CC(C)C[C@H](NC(=O)OC(C)(C)C)C(=O)N[C@H](Cc1c[nH]c2ccccc12)C(=O)NCC(O)C(=O)O (stereo partly drawn) [Compound 17] | 
4 | 74 | CC(C)C[C@H](NC(=O)OC(C)(C)C)C(=O)N[C@H](Cc1c[nH]c2ccccc12)C(=O)NC(Cc1nccs1)C(=O)O (stereo partly drawn) [Compound 16] | 
5 | 70 | CC(C)C[C@H](NC(=O)Nc1ccccc1)C(=O)N[C@H](Cc1c[nH]c2ccccc12)C(=O)NCCC(=O)O [Compound 84] ({NHPh-CO}-Leu-[dW]-[βAla]-OH) | 
6 | 22 | CC(C)C[C@H](NC(=O)OC(C)(C)C)C(=O)N[C@H](Cc1c[nH]c2ccccc12)C(=O)N[C@@H](CC(=O)O)C(N)=O [Compound 38] (Boc-Leu-[dW]-Asp-NH2) | 
7 | 85 | COC(=O)[C@@H](Cc1c[nH]c2ccccc12)NC(=O)[C@@H](Cc1c[nH]c2ccccc12)NC(=O)[C@H](CC(C)C)NC(=O)N1CCCCCC1 [Compound 49] | 
8 | 44 | CC(C)C[C@H](NC(=O)OC(C)(C)C)C(=O)N[C@H](Cc1c[nH]c2ccccc12)C(=O)N[C@@H](CC(=O)O)Cc1ccccc1 [Compound 20] (Boc-Leu-[dW]-[d(β3hF)]-OH) | 
9 | 31 | CC(C)C[C@H](NC(=O)OC(C)(C)C)C(=O)N[C@H](Cc1c[nH]c2ccccc12)C(=O)Nc1cccc(C(=O)O)c1 [Compound 12] (Boc-Leu-[dW]-[3Abz]-OH) | 
10 | 75 | CC(C)C[C@H](NC(=O)OC(C)(C)C)C(=O)N[C@H](Cc1c[nH]c2ccccc12)C(=O)N[C@H](Cc1ccccc1)C(=O)O [Compound 39] (Boc-Leu-[dW]-[dF]-OH) | 
11 | 65 | CC(C)C[C@H](NC(=O)OC(C)(C)C)C(=O)N[C@H](Cc1c[nH]c2ccccc12)C(=O)N[C@H](C)C(=O)O [Compound 41] (Boc-Leu-[dW]-[dA]-OH) | 
12 | 32 | CC(C)C[C@H](NC(=O)OC(C)(C)C)C(=O)N[C@H](Cc1c[nH]c2ccccc12)C(=O)N[C@H](CCC(N)=O)C(=O)O [Compound 10] (Boc-Leu-[dW]-[dQ]-OH) | 
13 | 69 | CC(C)C[C@H](NC(=O)OC(C)(C)C)C(=O)N[C@H](Cc1c[nH]c2ccccc12)C(=O)NCCC(=O)O [Compound 29] (Boc-Leu-[dW]-[βAla]-OH) | 
14 | 83 | CC(C)C[C@H](NC(=O)OC(C)(C)C)C(=O)N[C@H](Cc1c[nH]c2ccccc12)C(=O)N[C@H](Cc1c[nH]c2ccccc12)C(=O)O [Compound 2] (Boc-Leu-[dW]-[dW]-OH) | 
15 | 76 | CC(C)C[C@H](NC(=O)NC(C)(C)C)C(=O)N[C@H](Cc1c[nH]c2ccccc12)C(=O)N[C@H](Cc1c[nH]cn1)C(=O)O [Compound 82] ({NHtBu-CO}-Leu-[dW]-[dH]-OH) | 
16 | 46 | CC(C)C[C@H](NC(=O)Nc1ccccc1)C(=O)N[C@H](Cc1c[nH]c2ccccc12)C(=O)NCC(=O)O [Compound 90] ({NHPh-CO}-Leu-[dW]-Gly-OH) | 
17 | 41 | C=C(NC(=O)[C@@H](Cc1c[nH]c2ccccc12)NC(=O)[C@H](CC(C)C)NC(=O)OC(C)(C)C)C(=O)O [Compound 133] (Boc-Leu-[dW]-[Dha]-OH) | 
18 | 39 | CC(C)C[C@H](NC(=O)OC(C)(C)C)C(=O)N[C@H](Cc1c[nH]c2ccccc12)C(=O)N[C@H](CC(=O)O)Cc1ccccc1 [Compound 21] (Boc-Leu-[dW]-[β3hF]-OH) | 
19 | 31 | CC(C)C[C@H](NC(=O)OC(C)(C)C)C(=O)N[C@H](Cc1c[nH]c2ccccc12)C(=O)N[C@H](CC(C)C)C(=O)O [Compound 3] (Boc-Leu-[dW]-[dL]-OH) | 
20 | 35 | CC(C)C[C@H](NC(=O)OC(C)(C)C)C(=O)N[C@H](Cc1c[nH]c2ccccc12)C(=O)N[C@H](CO)C(=O)O [Compound 7] (Boc-Leu-[dW]-[dS]-OH) | 
21 | 87 | CC(C)C[C@H](NC(=O)N(CC(C)C)C1CCCC1)C(=O)N[C@H](Cc1c[nH]c2ccccc12)C(=O)N[C@H](Cc1c[nH]c2ccccc12)C(=O)O [Compound 172] | 

Second part, the molecule before the results:

Row | SMILES | inhibition at 1.1 µM (1.1 μM test compound (no mark)) [%] | further results
22 | CC(C)C[C@H](NC(=O)OC(C)(C)C)C(=O)N[C@H](Cc1c[nH]c2ccccc12)C(=O)NNCC(=O)O [Compound 148] |  | inhibition at 10 µM: 82%
23 | CC(C)C[C@H](NC(=O)N1CCCCCC1)C(=O)N[C@H](Cc1c[nH]c2ccccc12)C(=O)N[C@H](Cc1c[nH]cn1)C(=O)O [Compound 48] | 82 | 
24 | CC(C)C[C@H](NC(=O)CC(C)(C)C)C(=O)N[C@H](Cc1c[nH]c2ccccc12)C(=O)NCCC(=O)O [Compound 68] |  | inhibition at 10 µM: 58%
25 | CC[C@H](C)[C@H](NC(=O)OC(C)(C)C)C(=O)N[C@H](Cc1c[nH]c2ccccc12)C(=O)NCCC(=O)O [Compound 54] (Boc-Ile-[dW]-[βAla]-OH) | 39 | 
26 | CC(C)C[C@H](NC(=O)N1CCCCCC1)C(=O)N[C@H](Cc1c[nH]c2ccccc12)C(=O)NCCC(=O)NS(C)(=O)=O [Compound 158] | 57 | 
27 | CC(C)C[C@H](NC(=O)N(C(C)C)C(C)C)C(=O)N[C@H](Cc1c[nH]c2ccccc12)C(=O)NCCC(=O)O [Compound 119] | 81 | 
28 | CC(C)C[C@H](OC(=O)C1CCCCCC1)C(=O)N[C@H](Cc1c[nH]c2ccccc12)C(=O)N[C@H](Cc1c[nH]c2ccccc12)C(=O)O [Compound 201] |  | inhibition at 1.1 µM: 69%
29 | COC(=O)C(C(=O)N[C@@H](CC(C)C)C(=O)N[C@H](Cc1c[nH]c2ccccc12)C(=O)NCCC(=O)O)=C1SC=CS1 [Compound 66] | 77 | 
30 | CC(C)C[C@H](NC(=O)N1CCCCCC1)C(=O)N[C@H](Cc1c[nH]c2ccccc12)C(=O)NCCC(=O)N(C)C [Compound 136] | 32 | 
31 | CCC[C@H](NC(=O)OC(C)(C)C)C(=O)N[C@H](Cc1c[nH]c2ccccc12)C(=O)NCCC(=O)O [Compound 28] (Boc-[Nva]-[dW]-[βAla]-OH) | 38 | 
32 | CCOC(=O)CCNC(=O)[C@@H](Cc1c[nH]c2ccccc12)NC(=O)[C@H](CC(C)C)NC(=O)N1CCCCCC1 [Compound 92] | 40 | 
33 | CC(C)C[C@H](NC(=O)C(C)(C)C)C(=O)N[C@H](Cc1c[nH]c2ccccc12)C(=O)NCCC(=O)O [Compound 69] (Piv-Leu-[dW]-[βAla]-OH) |  | inhibition at 10 µM: 71%
34 | CC(C)C[C@H](NC(=O)OC(C)(C)C)C(=O)N[C@H](Cc1c[nH]c2ccccc12)C(=O)N[C@H](CC(N)=O)C(=O)O [Compound 9] (Boc-Leu-[dW]-[dN]-OH) |  | inhibition at 10 µM: 55%
35 | CC(C)C[C@H](NC(=O)N1C(C)(C)CCCC1(C)C)C(=O)N[C@H](Cc1c[nH]c2ccccc12)C(=O)NCCC(=O)O [Compound 74] | 70 | 
36 | CC(C)C[C@H](NC(=O)NC(C)(C)C)C(=O)N[C@H](Cc1c[nH]c2ccccc12)C(=O)N[C@H](C)CC(=O)O [Compound 80] ({NHtBu-CO}-Leu-[dW]-[d(β3hA)]-OH) | 73 | 
37 | CC(C)C[C@H](NC(=S)Nc1ccccc1)C(=O)N[C@H](Cc1c[nH]c2ccccc12)C(=O)NCC(=O)O [Compound 91] |  | inhibition at 10 µM: 51%
38 | CC(C)C[C@H](NC(=O)N1CCCCCC1)C(=O)N[C@H](Cc1c[nH]c2ccccc12)C(=O)N[C@H](C)CS(=O)(=O)O [Compound 160] | 86 | 
39 | CC(C)C[C@H](NC(=O)NCc1ccccc1)C(=O)N[C@H](Cc1c[nH]c2ccccc12)C(=O)NCCC(=O)O [Compound 115] ({NHBn-CO}-Leu-[dW]-[βAla]-OH) | 33 | 
40 | CC(C)C[C@H](NC(=O)N1CCCCCC1)C(=O)N[C@H](Cc1c[nH]c2ccccc12)C(=O)NN1CCC[C@H]1C(=O)O [Compound 164] | 71 | 
41 | CNC(=O)CCNC(=O)[C@@H](Cc1c[nH]c2ccccc12)NC(=O)[C@H](CC(C)C)NC(=O)N1CCCCCC1 [Compound 134] | 32 | 
42 | CC(C)C[C@H](NC(=O)OC(C)(C)C)C(=O)N[C@H](Cc1c[nH]c2ccccc12)C(=O)N[C@@H](C(=O)O)C(C)C [Compound 43] (Boc-Leu-[dW]-[dV]-OH) |  | inhibition at 10 µM: 36%
